Source: patent US20130337020A1, “Pharmaceutical Compositions” (Alpharma Pharmaceuticals LLC, priority 2006, published 2013)

Key:
[1] = in comparison to a 15 mg dose of hydrocodone
[2] = test system: opioid receptors; conditions: cited from earlier work

Row | Compound | Equianalgesic Doses of Opioids, Calculated Dose [1] [mg] | antagonist potency relative to naltrexone [2] [%]
1 | COc1ccc2c3c1O[C@H]1[C@@H](O)C=C[C@H]4[C@@H](C2)N(C)CC[C@@]341 [Codeine] | 90.0 | –
2 | Oc1ccc2c3c1O[C@H]1[C@H](O)CC[C@@]4(O)[C@@H](C2)N(CC2CC2)CC[C@]314 [6-β-naltrexol] | – | 2 to 4
3 | COc1ccc2c3c1OC1C(=O)CC[C@H]4[C@@H](C2)N(C)CC[C@]314 (stereo partly shown) [Hydrocodone, 4,5-epoxy-3-methoxy-17-methylmorphinan-6-one] | 15.0 | –
4 | COc1ccc2c3c1OC1C(=O)CC[C@@]4(O)[C@@H](C2)N(C)CC[C@]314 (stereo partly shown) [Oxycodone, 4,5-epoxy-14-hydroxy-3-methoxy-17-methylmorphinan-6-one] | 13.5 | –
5 | CCC(=O)C(CC(C)N(C)C)(c1ccccc1)c1ccccc1 (stereo not shown) [Methadone] | 9.0 | –
6 | Meperidine | 135.0 | –
7 | CN1CC[C@]23CCCC[C@H]2[C@H]1Cc1ccc(O)cc13 [Levorphanol] | 1.8 | –
